Source: patent publication US20260285850A1, “SUBSTITUTED OXAZOLIDINONES AND IMIDAZOLINONES AS HERBICIDES” (FMC CORPORATION, priority 2023, published 2026)

Experiments:
Type in all cases: in vivo
[1] = tested on: barnyardgrass (Echinochloa crus-galli); assay: Test A preemergence soil spray, visual injury rating 0-100; details: 10 days
In short: (§1)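 Scale 0–100 (no effect to complete control), visual, versus untreated controls, read 10 days after application. Application: preemergence directed spray onto seeded loam–sand soil, or postemergence to young plants; formulation in non-phytotoxic solvent with surfactant.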

[2] = tested on: blackgrass (Alopecurus myosuroides); assay: as above; details: 10 days
In short: as §1

corn (Zea mays) [3] = assay: as above; details: 10 days
In short: as §1

[4] = tested on: green foxtail (Setaria viridis); assay: as above; details: 10 days
In short: as §1

kochia (Bassia scoparia) [5] = assay: as above; details: 10 days
In short: as §1

[6] = tested on: oat, wild (wild oat, Avena fatua); assay: as above; details: 10 days
In short: as §1

[7] = tested on: palmer (palmer amaranth, palmer pigweed, Amaranthus palmeri); assay: as above; details: 10 days
In short: as §1

[8] = tested on: ragweed (common ragweed, Ambrosia artemisiifolia); assay: as above; details: 10 days
In short: as §1

[9] = tested on: ryegrass, Italian (italian ryegrass, Lolium multiflorum); assay: as above; details: 10 days
In short: as §1

soybean (Glycine max) [10] = assay: as above; details: 10 days
In short: as §1

[11] = tested on: wheat (Triticum aestivum); assay: as above; details: 10 days
In short: as §1

[12] = tested on: barnyardgrass (Echinochloa crus-galli); assay: Test A postemergence application, visual injury rating 0-100; details: for Barnyardgrass plant response rating (0 to 100 scale): Postemergence
In short: as §1

[13] = tested on: blackgrass (Alopecurus myosuroides); assay: as above; details: for Blackgrass plant response rating (0 to 100 scale): Postemergence
In short: as §1

corn (Zea mays) [14] = assay: as above; details: for Corn plant response rating (0 to 100 scale): Postemergence
In short: as §1

[15] = tested on: galium (catchweed bedstraw, Galium aparine); assay: as above; details: for Galium plant response rating (0 to 100 scale): Postemergence
In short: as §1

[16] = tested on: green foxtail (Setaria viridis); assay: as above; details: for Foxtail, Green plant response rating (0 to 100 scale): Postemergence
In short: as §1

[17] = tested on: horseweed (Erigeron canadensis); assay: as above; details: for Horseweed plant response rating (0 to 100 scale): Postemergence
In short: as §1

kochia (Bassia scoparia) [18] = assay: as above; details: for Kochia plant response rating (0 to 100 scale): Postemergence
In short: as §1

[19] = tested on: oat, wild (wild oat, Avena fatua); assay: as above; details: for Oat, Wild plant response rating (0 to 100 scale): Postemergence
In short: as §1

[20] = tested on: palmer (palmer amaranth, palmer pigweed, Amaranthus palmeri); assay: as above; details: for Amaranth, Palmer / Pigweed, Palmer plant response rating (0 to 100 scale): 0 is no effect, 100 is complete control
In short: as §1

[21] = tested on: ragweed (common ragweed, Ambrosia artemisiifolia); assay: as above; details: for Ragweed plant response rating (0 to 100 scale): Postemergence
In short: as §1

[22] = tested on: ryegrass, Italian (italian ryegrass, Lolium multiflorum); assay: as above; details: for Ryegrass, Italian plant response rating (0 to 100 scale): Postemergence
In short: as §1

soybean (Glycine max) [23] = assay: as above; details: for Soybean plant response rating (0 to 100 scale): Postemergence
In short: as §1

[24] = tested on: wheat (Triticum aestivum); assay: as above; details: for Wheat plant response rating (0 to 100 scale): Postemergence
In short: as §1

[25] = tested on: barnyardgrass (Echinochloa crusgalli); assay: Test B flooded paddy test, visual plant response rating 0-100; details: 250 g ai/ha, Flood, applied to paddy water, evaluated after 13 days
In short: (§2)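 Plants were grown to the 2-leaf stage, then pots were flooded to 3 cm above the soil and compound was applied directly to the paddy water, with that depth kept throughout.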

[26] = tested on: ducksalad (Heteranthera limosa); assay: as above; details: 250 g ai/ha, Flood, applied to paddy water, evaluated after 13 days
In short: as §2

rice (Oryza sativa) = assay: as above; details: 250 g ai/ha, Flood, applied to paddy water, evaluated after 13 days
In short: as §2

[27] = tested on: sedge, umbrella (small-flower umbrella sedge, Cyperus difformis); assay: as above; details: 250 g ai/ha, Flood, applied to paddy water, evaluated after 13 days
In short: as §2

[28] = 62 g ai/ha, 0 = no effect, 100 = complete control
[29] = 62 g ai/ha, postemergence, 10 days, 0 = no effect, 100 = complete control
[30] = 16 g ai/ha, greenhouse 10 days, 0 no effect, 100 complete control
[31] = 125 g ai/ha, 0 = no effect, 100 = complete control
[32] = 500 g ai/ha, 0 = no effect, 100 = complete control
[33] = 125 g ai/ha, 10 days, 0 is no effect, 100 is complete control
[34] = 500 g ai/ha, 10 days, 0 is no effect, 100 is complete control

Structure (SMILES): COC(=O)C1C=CC(NC(=O)C2(C)CN(c3cc(F)cc(F)c3)C(=O)O2)C1 (mixture of isomers) [Compound 161]
- Barnyardgrass plant response rating ([1]; 16 g ai/ha, 0 to 100 scale): 80
- Barnyardgrass plant response rating (0-100) [1, 28]: 100
- Blackgrass plant response rating ([2]; 16 g ai/ha, 0 to 100 scale): 70
- Blackgrass plant response rating (0-100) [2, 28]: 90
- Corn plant response rating (corn (Zea mays) [3]; 16 g ai/ha, 0 to 100 scale): 30
- Corn plant response rating (0-100) (corn (Zea mays) [3]; [28]): 80
- Foxtail, Green plant response rating ([4]; 16 g ai/ha, 0 to 100 scale): 30
- Foxtail, Green plant response rating (0-100) [4, 28]: 100
- Kochia plant response rating (kochia (Bassia scoparia) [5]; 16 g ai/ha, 0 to 100 scale): 0
- Kochia plant response rating (0-100) (kochia (Bassia scoparia) [5]; [28]): 50
- Oat, Wild plant response rating ([6]; 16 g ai/ha, 0 to 100 scale): 30
- Oat, Wild plant response rating (0-100) [6, 28]: 90
- Pigweed, Palmer plant response rating ([7]; 16 g ai/ha, 0 to 100 scale): 90
- Pigweed, Palmer plant response rating (0-100) [7, 28]: 100
- Ragweed plant response rating ([8]; 16 g ai/ha, 0 to 100 scale): 10
- Ragweed plant response rating (0-100) [8, 28]: 50
- Ryegrass, Italian plant response rating ([9]; 16 g ai/ha, 0 to 100 scale): 90
- Ryegrass, Italian plant response rating (0-100) [9, 28]: 90
- Soybean plant response rating (soybean (Glycine max) [10]; 16 g ai/ha, 0 to 100 scale): 0
- Soybean plant response rating (0-100) (soybean (Glycine max) [10]; [28]): 50
- Wheat plant response rating ([11]; 16 g ai/ha, 0 to 100 scale): 80
- Wheat plant response rating (0-100) [11, 28]: 90
- Barnyardgrass plant response rating (0-100) [12, 29]: 100
- Barnyardgrass plant response rating (0 to 100 scale) [12, 30]: 80
- Blackgrass plant response rating (0-100) [13, 29]: 90
- Blackgrass plant response rating (0 to 100 scale) [13, 30]: 90
- Corn plant response rating (0-100) (corn (Zea mays) [14]; [29]): 100
- Corn plant response rating (0 to 100 scale) (corn (Zea mays) [14]; [30]): 100
- Galium plant response rating (0-100) [15, 29]: 90
- Galium plant response rating (0 to 100 scale) [15, 30]: 80
- Foxtail, Green plant response rating (0-100) [16, 29]: 90
- Foxtail, Green plant response rating (0 to 100 scale) [16, 30]: 60
- Horseweed plant response rating (0-100) [17, 29]: 70
- Horseweed plant response rating (0 to 100 scale) [17, 30]: 60
- Kochia plant response rating (0-100) (kochia (Bassia scoparia) [18]; [29]): 30
- Kochia plant response rating (0 to 100 scale) (kochia (Bassia scoparia) [18]; [30]): 0
- Oat, Wild plant response rating (0-100) [19, 29]: 90
- Oat, Wild plant response rating (0 to 100 scale) [19, 30]: 90
- Pigweed, Palmer plant response rating (0-100) [20, 29]: 70
- Pigweed, Palmer plant response rating (0 to 100 scale) ([20]; Postemergence, 16 g ai/ha, greenhouse 10 days, 0 no effect, 100 complete control): 40
- Ragweed plant response rating (0-100) [21, 29]: 70
- Ragweed plant response rating (0 to 100 scale) [21, 30]: 50
- Ryegrass, Italian plant response rating (0-100) [22, 29]: 80
- Ryegrass, Italian plant response rating (0 to 100 scale) [22, 30]: 70
- Soybean plant response rating (0-100) (soybean (Glycine max) [23]; [29]): 70
- Soybean plant response rating (0 to 100 scale) (soybean (Glycine max) [23]; [30]): 60
- Wheat plant response rating (0-100) [24, 29]: 90
- Wheat plant response rating (0 to 100 scale) [24, 30]: 90
- Plant response rating, Barnyardgrass (0 to 100 scale, 0 is no effect and 100 is complete control) [25]: 60
- Plant response rating, Ducksalad (0 to 100 scale, 0 is no effect and 100 is complete control) [26]: 80
- Plant response rating, Rice (0 to 100 scale, 0 is no effect and 100 is complete control) (rice (Oryza sativa)): 85
- Plant response rating, Sedge, Umbrella (0 to 100 scale, 0 is no effect and 100 is complete control) [27]: 95

Structure (SMILES): CCOC(=O)C1C=CC(NC(=O)C2(C)CN(c3cc(Cl)cc(Cl)c3)C(=O)O2)C1 (centres unmarked) [Compound 44]
- Barnyardgrass plant response rating (0 to 100 scale) [1, 31]: 100
- Barnyardgrass plant response rating (0 to 100 scale) [1, 32]: 100
- Blackgrass plant response rating (0 to 100 scale) [2, 31]: 90
- Blackgrass plant response rating (0 to 100 scale) [2, 32]: 100
- Corn plant response rating (0 to 100 scale) (corn (Zea mays) [3]; [31]): 70
- Corn plant response rating (0 to 100 scale) (corn (Zea mays) [3]; [32]): 90
- Foxtail, Green plant response rating (0 to 100 scale) [4, 31]: 90
- Foxtail, Green plant response rating (0 to 100 scale) [4, 32]: 100
- Kochia plant response rating (0 to 100 scale) (kochia (Bassia scoparia) [5]; [31]): 100
- Kochia plant response rating (0 to 100 scale) (kochia (Bassia scoparia) [5]; [32]): 100
- Oat, Wild plant response rating (0 to 100 scale) [6, 31]: 80
- Oat, Wild plant response rating (0 to 100 scale) [6, 32]: 90
- Amaranth, Palmer plant response rating (0 to 100 scale) [7, 31]: 100
- Amaranth, Palmer plant response rating (0 to 100 scale) [7, 32]: 100
- Ragweed plant response rating (0 to 100 scale) [8, 31]: 10
- Ragweed plant response rating (0 to 100 scale) [8, 32]: 60
- Ryegrass, Italian plant response rating (0 to 100 scale) [9, 31]: 90
- Ryegrass, Italian plant response rating (0 to 100 scale) [9, 32]: 100
- Soybean plant response rating (0 to 100 scale) (soybean (Glycine max) [10]; [31]): 20
- Soybean plant response rating (0 to 100 scale) (soybean (Glycine max) [10]; [32]): 70
- Wheat plant response rating (0 to 100 scale) [11, 31]: 90
- Wheat plant response rating (0 to 100 scale) [11, 32]: 90
- Barnyardgrass plant response rating (0 to 100 scale) [12, 33]: 100
- Barnyardgrass plant response rating (0 to 100 scale) [12, 34]: 100
- Blackgrass plant response rating (0 to 100 scale) [13, 33]: 100
- Blackgrass plant response rating (0 to 100 scale) [13, 34]: 100
- Corn plant response rating (0 to 100 scale) (corn (Zea mays) [14]; [33]): 100
- Corn plant response rating (0 to 100 scale) (corn (Zea mays) [14]; [34]): 100
- Galium plant response rating (0 to 100 scale) [15, 33]: 70
- Galium plant response rating (0 to 100 scale) [15, 34]: 70
- Foxtail, Green plant response rating (0 to 100 scale) [16, 33]: 90
- Foxtail, Green plant response rating (0 to 100 scale) [16, 34]: 90
- Horseweed plant response rating (0 to 100 scale) [17, 33]: 90
- Horseweed plant response rating (0 to 100 scale) [17, 34]: 90
- Kochia plant response rating (0 to 100 scale) (kochia (Bassia scoparia) [18]; [33]): 80
- Kochia plant response rating (0 to 100 scale) (kochia (Bassia scoparia) [18]; [34]): 80
- Oat, Wild plant response rating (0 to 100 scale) [19, 33]: 90
- Oat, Wild plant response rating (0 to 100 scale) [19, 34]: 90
- Amaranth, Palmer / Pigweed, Palmer plant response rating (0 to 100 scale) ([20]; Postemergence, 125 g ai/ha, 10 days): 100
- Amaranth, Palmer / Pigweed, Palmer plant response rating (0 to 100 scale) ([20]; Postemergence, 500 g ai/ha, 10 days): 100
- Ragweed plant response rating (0 to 100 scale) [21, 33]: 70
- Ragweed plant response rating (0 to 100 scale) [21, 34]: 80
- Ryegrass, Italian plant response rating (0 to 100 scale) [22, 33]: 90
- Ryegrass, Italian plant response rating (0 to 100 scale) [22, 34]: 80
- Soybean plant response rating (0 to 100 scale) (soybean (Glycine max) [23]; [33]): 90
- Soybean plant response rating (0 to 100 scale) (soybean (Glycine max) [23]; [34]): 80
- Wheat plant response rating (0 to 100 scale) [24, 33]: 90
- Wheat plant response rating (0 to 100 scale) [24, 34]: 90
- Plant response rating, Barnyardgrass (0 to 100 scale, 0 is no effect and 100 is complete control) [25]: 80
- Plant response rating, Ducksalad (0 to 100 scale, 0 is no effect and 100 is complete control) [26]: 90
- Plant response rating, Rice (0 to 100 scale, 0 is no effect and 100 is complete control) (rice (Oryza sativa)): 15
- Plant response rating, Sedge, Umbrella (0 to 100 scale, 0 is no effect and 100 is complete control) [27]: 95
